Laboratory results published in patent publication US8568736B2, “Polypeptide derivatives of parathyroid hormone (PTH)” (The General Hospital Corporation, priority 1999, dated 2013).
Like-named read-outs stand apart in the source and are kept apart here. No end group written: not given here.

Legend:
hPTH-2 Receptor = biological target: T1, hPTH-2 Receptor (Homo sapiens, UniProt P49190); assay: cAMP stimulation in LLC-P2R-22 cells (LLC-PK1 stably transfected with hPTH-2 receptor); type: cell-based; details: for Emax / EC50 Log M: LLC-P2R-22 cells (hPTH-2 Receptor)
T1 construct: expressed in transfected cells; host or cells: LLC-PK1 porcine kidney cells (clone given as hPR2-20, hPR2-22, LLC-P2R-22 or P2R-22)
Excerpt: Stably transfected derivatives of the porcine kidney cell line LLC-PK1, HKRK-B7 (Takasu, H., et al., J. Bone Miner. Res. 14:11-20 (1999)) and hPR2-20, express the human PTH-1 and human PTH-2 receptors respectively. The HKRK-B7 LLC-PK1 cell line expresses the hPTH-1 receptor at ˜1×10^6 receptors/cell (Takasu, H., et al., J. Bone Miner. Res. 14:11-20 (1999)), and the hPR2-22 LLC-PK1 cell line expresses the hPTH-2 receptor at ˜0.8×10^6 receptors/cell (provided by H. Takasu and F. R. Bringhurst, Endocrine Unit, Massachusetts General Hospital).
(§1) Stimulation of cells with peptide analogs was performed in 24-well plates. Cells were rinsed with 0.5 mL of binding buffer and treated with 200 μL of cAMP assay buffer (Dulbecco's modified Eagle's medium containing 2 mM 3-isobutyl-1-methylxanthine, 1 mg/mL bovine serum albumin, 35 mM Hepes-NaOH, pH 7.4) and 100 μL of binding buffer containing varying amounts of peptide analog (final volume=300 μL). The medium was removed after incubation for 1 h at room temperature, and the cells were frozen (−80° C.), lysed with 0.5 mL 50 mM HCl, and refrozen (−80° C.). The cAMP content of the diluted lysate was determined by radioimmunoassay. Where possible, cAMP EC50 and Maximum response values were determined using nonlinear regression (see below).
Intracellular cAMP accumulation may be measured as described by Abou-Samra et al., J. Biol. Chem. 262:1129, 1986) or other methods known to those of skill in the art. Intracellular cAMP is extracted by thawing the cells in 1 ml of 50 mM HCl and analyzed by a specific radioimmunoassay using an anti-cAMP antibody (e.g., Sigma, St. Louis, Mo.). A cAMP analog (2′-O-monosuccinyl-adenosine 3′:5′-cyclic monophosphate tyrosyl methyl ester, obtained from Sigma) which is used as a tracer for cAMP is iodinated by the chloramine T method. Free iodine is removed by adsorbing the iodinated cAMP analog onto a C18 Sep-pak cartridge (Waters, Milford, Mass.). After washing with dH2O, the iodinated cAMP analog is eluted from the Sep-pak Cartridge with 40% acetonitrille (ACN) and 0.1% trifluoroacetic acid (TFA). The iodinated cAMP analog is lyophilized, reconstituted in 1 ml 0.1% TFA, and injected into a C18 reverse phase HPLC column (Waters). The column is equilibrated with 10% ACN in 0.1% TFA, and eluted with gradient of 10-30% ACN in 0.1% TFA. This allows separation of the mono-iodinated cAMP analog from the non-iodinated cAMP analog. The tracer is stable for up to 4 months when stored at −20° C. The standard used for the assay, adenosine 3′:5′-cyclic monophosphate, is purchased from Sigma. Samples (1-10 µl of HCl extracts) or standards (0.04-100 fmol/tube) are diluted in 50 mM Na-acetate (pH 5.5), and acetylated with 10 μl of mixture of triethylamine and acetic anhydride (2:1 vol:vol). After acetylation, cAMP antiserum (100 μl) is added from a stock solution (1:4000) made in PBS (pH 7.4), 5 mM EDTA and 1% normal rabbit serum. The tracer is diluted in PBS (pH 7.4) with 0.1% BSA, and added (20,000 cpm/tube). The assay is incubated at 4° C. overnight. The bound tracer is precipitated by adding 100 μl of goat anti-rabbit antiserum (1:20 in PBS) and 1 ml of 7% polyethyleneglycol (MW 5000-6000), centrifuging at 2000 rpm for 30 min. at 4° C. The supernatant is removed and the bound radioactivity is counted in a gamma-counter (Micromedic). To compute the cAMP data, logit calculations were performed in Excel spreadsheets. Typically, the assay sensitivity is 0.1 fmol/tube, and the standard concentration that displaces 50% of tracer is 5 fmol/tube.
All calculations were performed using Microsoft Excel. Nonlinear regression analysis of cAMP stimulation data was performed using parameters, defined as the Minimum, Maximum, Emax, midpoint (EC50), and slope of the response curve. The predicted response (yp) for a given dose (x) of peptide was calculated using the following equation: yp=Min+[(Max−Min)/(1+(EC50/x)^slope)]. […]

WT hPTH-1 receptor = biological target: T2, WT hPTH-1 receptor (Homo sapiens, UniProt Q03431); assay: cAMP stimulation in COS-7 cells transiently transfected with WT hPTH-1 receptor; type: cell-based
T2 construct: encoding the intact hPTH-1 receptor (HK-WT); expressed in transfected cells; host or cells: COS-7, transient, pcDNA-1 plasmid
T2 sequence (Q03431 27-593): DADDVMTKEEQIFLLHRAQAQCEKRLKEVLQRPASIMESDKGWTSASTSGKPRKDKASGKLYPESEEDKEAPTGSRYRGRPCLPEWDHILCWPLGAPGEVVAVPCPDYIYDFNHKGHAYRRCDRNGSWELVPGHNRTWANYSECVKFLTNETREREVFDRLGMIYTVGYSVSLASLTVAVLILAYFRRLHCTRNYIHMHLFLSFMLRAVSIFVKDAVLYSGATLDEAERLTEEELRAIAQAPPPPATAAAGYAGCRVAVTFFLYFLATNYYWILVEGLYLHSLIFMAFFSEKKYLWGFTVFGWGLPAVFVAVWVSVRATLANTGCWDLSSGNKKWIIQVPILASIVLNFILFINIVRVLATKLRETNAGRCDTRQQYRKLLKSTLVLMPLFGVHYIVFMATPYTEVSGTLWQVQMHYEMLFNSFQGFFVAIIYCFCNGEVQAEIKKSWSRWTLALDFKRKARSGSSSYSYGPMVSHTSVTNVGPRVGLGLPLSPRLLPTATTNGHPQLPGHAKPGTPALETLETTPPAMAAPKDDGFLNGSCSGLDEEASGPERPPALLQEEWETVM
Description: COS-7 cells were transfected in 24-well plates when the cells were 85 to 95% of confluency using 200 ng of plasmid DNA that was purified by cesium chloride/ethidium bromide gradient centrifugation for each well. Assays were conducted 72 to 96 hours after transfection.
as §1
All calculations were performed using Microsoft Excel. Nonlinear regression analysis of cAMP stimulation data was performed using parameters, defined as the Minimum, Maximum, Emax, midpoint (EC50), and slope of the response curve. The predicted response (yp) for a given dose (x) of peptide was calculated using the following equation: yp=Min+[(Max−Min)/(1+(EC50/x)^slope)]. […] The statistical significance between two data sets was determined using a one-tailed Student's t-test, assuming unequal variances for the two sets.

[1] = COS-7 cells, WT hPTH-1 receptor
[2] = LLC-PK1 cells expressing PTH-2 receptor, cAMP

T1 sequence (P49190 25-550): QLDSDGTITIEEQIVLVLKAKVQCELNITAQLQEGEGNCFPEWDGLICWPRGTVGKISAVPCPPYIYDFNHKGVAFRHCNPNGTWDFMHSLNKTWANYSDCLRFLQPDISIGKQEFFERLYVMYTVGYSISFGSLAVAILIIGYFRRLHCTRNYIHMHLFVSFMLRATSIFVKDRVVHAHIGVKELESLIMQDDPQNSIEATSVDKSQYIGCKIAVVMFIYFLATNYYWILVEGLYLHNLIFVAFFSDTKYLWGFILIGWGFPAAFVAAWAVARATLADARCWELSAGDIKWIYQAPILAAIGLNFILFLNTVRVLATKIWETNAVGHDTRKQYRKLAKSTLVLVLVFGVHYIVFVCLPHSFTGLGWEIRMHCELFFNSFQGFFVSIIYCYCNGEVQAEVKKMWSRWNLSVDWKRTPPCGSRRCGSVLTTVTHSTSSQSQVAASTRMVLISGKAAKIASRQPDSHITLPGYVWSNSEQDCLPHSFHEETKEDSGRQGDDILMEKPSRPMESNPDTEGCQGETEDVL

CCCC[C@H](NC(=O)[C@H](CCCNC(=N)N)NC(=O)[C@H](CCC(=O)O)NC(=O)[C@@H](NC(=O)[C@H](CO)NC(=O)[C@H](C)NC(=O)[C@H](CC(C)C)NC(=O)[C@H](Cc1c[nH]cn1)NC(=O)[C@H](CCCCN)NC(=O)CNC(=O)[C@H](CC(C)C)NC(=O)[C@H](CC(N)=O)NC(=O)[C@H](Cc1c[nH]cn1)NC(=O)[C@H](CCCC)NC(=O)[C@H](CC(C)C)NC(=O)[C@H](CCC(N)=O)NC(=O)[C@@H](NC(=O)[C@H](CCC(=O)O)NC(=O)[C@H](CO)NC(=O)[C@@H](NC(=O)[C@H](C)N)C(C)C)[C@@H](C)CC)C(C)C)C(=O)N[C@@H](CCC(N)=O)C(=O)N[C@@H](Cc1c[nH]c2ccccc12)C(=O)N[C@@H](CC(C)C)C(=O)N[C@@H](CCCNC(=N)N)C(=O)N[C@@H](CCCCN)C(=O)N[C@@H](CCCCN)C(=O)N[C@@H](CC(C)C)C(=O)N[C@@H](CCC(N)=O)C(=O)N[C@@H](CC(=O)O)C(=O)N[C@H](C(=O)N[C@@H](Cc1c[nH]cn1)C(=O)N[C@@H](CC(N)=O)C(=O)N[C@@H](Cc1ccc(O)cc1)C(N)=O)C(C)C [[Nle8, 21, Y34]rPTH(1-34), [Nle^8,21,Tyr^34]-rPTH(1-34)NH2, reference compound]
Emax (hPTH-2 Receptor): 744 ± 48 picomole/well | Emax (WT hPTH-1 receptor; [1]): 226 ± 31 picomole/well

AVAEIQLMHAR-NH2 [compound 6, AlaValAlaGluIleGlnLeuMetHisAlaArg-amide]
EC50 Log M (hPTH-2 Receptor; cAMP): weakly | Emax (WT hPTH-1 receptor; [1]): 238 ± 20 picomole/well | EC50 (WT hPTH-1 receptor; COS-7 cells, WT hPTH-1 receptor, cAMP, read-out: EC50): 29.1 ± 15.3 µM

AVAEIQLMHARAKH-NH2 [Peptide #1, AlaValAlaGluIleGlnLeuMetHisAlaArgAlaLysHis-amide]
Emax (hPTH-2 Receptor): 292 ± 100 picomole/well | potency relative to PTH(1-34) (hPTH-2 Receptor; [2]): four to five orders of magnitude weaker | stimulation of the PTH-2 receptor (in words) (hPTH-2 Receptor; [2]): active | Emax (WT hPTH-1 receptor; [1]): 243 ± 63 picomole/well | EC50 (WT hPTH-1 receptor; COS-7 cells, WT hPTH-1 receptor, cAMP, read-out: EC50 Log M (converted)): 1 µM

AVAEIQLMHARAKHLNSMERVEWLRKKLQDVHNY-NH2 [Peptide #7]
Emax (hPTH-2 Receptor): 677 picomole/well | EC50 (WT hPTH-1 receptor): 313 ± 121 µM | Emax (WT hPTH-1 receptor; [1]): 222 ± 31 picomole/well

AVSEIQLMHNLGKH-NH2 [native rPTH(1-14), AVSEIQLMHNLGKH, reference compound]
EC50 Log M (hPTH-2 Receptor; cAMP): inactive | stimulation of the PTH-2 receptor (in words) (hPTH-2 Receptor; [2]): did not stimulate | Emax (WT hPTH-1 receptor; [1]): 221 ± 22 picomole/well
